Measured values reported in patent US9670159B2, “Pharmaceutical composition of a papillomavirus inhibitor” (AVIRAGEN THERAPEUTICS, INC., priority 2012, dated 2017).

Key:
[1] = Solubility of the potassium salt in comparison with the hydrochloride; assay type: physicochemical; conditions: potassium salt in comparison with its hydrochloride
[2] = target: interaction between the E1 and E2 proteins of HPV11/HPV6 (Human papillomavirus 11, UniProt P04014+P04015); test: E1/E2 interaction test (luciferase reporter, mammalian two-hybrid type); assay type: cell-based
Source text: (§1) In the present invention two types of tests are used to study the biological activity of compounds against papillomavirus. A first test (“E1/E2 interaction test”) evaluates the interaction between the E1 and E2 proteins of HPV (human papillomavirus) in human cells. A second test (“replication test”) measures the replication of viral genomic DNA in human cells.
The test of interaction between E1 and E2 is similar to the tests often called “mammalian two-hybrid” tests. It is based on co-transfection of a reporter vector containing DNA binding sites for the E2 protein of HPV in the promoter controlling expression of the reporter gene, and of expression vectors coding the E1 and E2 proteins of HPV, the E1 protein being fused to the VP16 transactivation domain. […]
Compound (Ia), either in solution or in pharmaceutical compositions (a), (d), (f) and (g), was evaluated for its inhibitory activity on the interaction between the E1 and E2 proteins of HPV11/HPV6 in human cell lines derived from renal epithelial cells or cervical carcinoma cells. Various doses (0.25-40 μM) were incubated in the cell medium for 2 days after transfection, and luciferase activity was measured to determine the IC50 of the compound on the interaction between the E1 and E2 proteins of the HPVs.

[3] = system: E1 and E2 protein-dependent viral replication of HPV11; test: Replication test (replicon reporter vector, luciferase); assay type: cell-based; conditions: Homo sapiens, read-out: IC50 on E1 and E2 protein-dependent viral replication of HPV11 in cells
Source text: as §1
The test of replication of viral genomic DNA is based on the co-transfection of a reporter vector containing an HPV origin of replication (ori) and expression vectors coding the E1 and E2 proteins of HPV. It makes it possible to follow the set of biological functions of E1 and E2 required for replication of the genome of the HPVs. […]
Compound (Ia), either in solution or in pharmaceutical compositions (a), (d), (f) and (g), was also evaluated for its inhibitory activity on the E1- and E2-dependent viral replication of HPV11/HPV6 in human cell lines derived from renal epithelial cells or cervical carcinoma cells. Various doses (0.25-40 μM) were incubated in the cell medium for 2 to 6 days after transfection, and luciferase activity was measured using a luminometer to determine the IC50 of the compound on the replication of the genome of the HPVs.

[4] = Percutaneous absorption in vitro on human skin mounted on a Franz cell; assay type: in vitro ADME; conditions: 8 hours of diffusion
Procedure: The percutaneous absorption of compound (Ia) from pharmaceutical composition (g) was studied after the application of a dose of 10 mg/cm^2 on human skin mounted on a Franz cell. This study was carried out by comparing percutaneous absorption on healthy skin and on delaminated skin, as a model of the weak keratinization of the anogenital region.
After 8 or 24 hours of exposure to pharmaceutical composition (g), the quantity of compound (Ia) present in each skin layer (stratum corneum, epidermis, dermis) and that having crossed the skin (receiving fluid) is quantified by HPLC.
The stratum corneum of the non-delaminated skin samples is removed from the epidermis by peeling with adhesive. The latter is applied to the skin surface under constant and controlled pressure.

Chain of interaction between the E1 and E2 proteins of HPV11/HPV6 (P04014 whole entry): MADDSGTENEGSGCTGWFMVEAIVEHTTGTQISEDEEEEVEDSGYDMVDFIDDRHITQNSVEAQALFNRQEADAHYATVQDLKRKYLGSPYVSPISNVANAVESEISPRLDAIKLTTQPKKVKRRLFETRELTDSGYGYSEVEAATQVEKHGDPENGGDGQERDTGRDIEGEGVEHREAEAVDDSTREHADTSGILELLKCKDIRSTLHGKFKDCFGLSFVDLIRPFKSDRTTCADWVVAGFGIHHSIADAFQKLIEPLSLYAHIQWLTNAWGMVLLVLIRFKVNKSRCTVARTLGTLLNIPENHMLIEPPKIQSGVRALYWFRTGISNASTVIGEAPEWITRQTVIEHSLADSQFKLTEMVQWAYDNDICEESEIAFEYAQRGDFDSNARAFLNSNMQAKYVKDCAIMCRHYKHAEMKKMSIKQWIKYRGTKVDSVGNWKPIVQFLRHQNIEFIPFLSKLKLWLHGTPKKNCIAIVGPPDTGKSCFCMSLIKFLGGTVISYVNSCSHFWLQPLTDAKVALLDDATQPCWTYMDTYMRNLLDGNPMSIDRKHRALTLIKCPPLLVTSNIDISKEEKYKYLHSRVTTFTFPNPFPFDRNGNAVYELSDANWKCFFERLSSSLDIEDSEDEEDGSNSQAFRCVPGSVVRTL
Chain of interaction between the E1 and E2 proteins of HPV11/HPV6 (P04015 whole entry): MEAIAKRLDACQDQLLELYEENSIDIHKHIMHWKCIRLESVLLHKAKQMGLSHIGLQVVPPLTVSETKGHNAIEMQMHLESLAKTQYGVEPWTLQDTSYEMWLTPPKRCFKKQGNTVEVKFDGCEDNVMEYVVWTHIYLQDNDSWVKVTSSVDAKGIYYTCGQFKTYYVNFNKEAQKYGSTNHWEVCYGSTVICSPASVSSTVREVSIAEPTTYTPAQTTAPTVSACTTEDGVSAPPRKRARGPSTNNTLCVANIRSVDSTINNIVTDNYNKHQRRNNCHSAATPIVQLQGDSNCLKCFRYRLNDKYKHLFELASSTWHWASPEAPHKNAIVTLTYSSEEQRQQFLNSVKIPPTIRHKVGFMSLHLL

COc1cc(CC(=O)NN(c2ccc(Cc3ccccc3)cc2)c2c(C)cccc2N2CCCCC2)c(Br)cc1C(=O)O [Compound (Ia), 4-[N′-(4-benzyl-phenyl)-N′-(2-methyl-6-piperidin-1-yl-phenyl)-hydrazinocarbonylmethyl]-5-bromo-2-methoxy-benzoic acid]
solubility [1]: increases the solubility
IC50 [2]: ~1000 nM
IC50 [3]: ~1000 nM
local concentration in the skin relative to the IC50 measured in cellulo ([4]; delaminated skin): 1000 times
local concentration in the skin relative to the IC50 measured in cellulo ([4]; healthy skin): 100 times
